Measurements: ChEMBL document CHEMBL1201862, “PubChem BioAssay data set” (2004)
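Interpolation was linear, between the two tested concentrations surrounding the appropriate level; five concentrations were tested over 48 hours in 96-well plates. Abbreviation: GI50, concentration required for 50% inhibition of growth.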 Activity calls are given as the source filed them. No stated cut-off is given here; in the data, active = GI50 up to about 1.1 µM and inactive = higher.

Tests used:
Experiment in all cases: NCI-60 cell line screen, 48 h
SNB-19 = test system: SNB-19
MCF7 = test system: MCF7
Malme-3M = test system: Malme-3M
RPMI-8226 = test system: RPMI-8226
HCT-15 = test system: HCT-15
K562 = test system: K562
MDA-N = test system: MDA-N
NCI-H522 = test system: NCI-H522
PC-3 = test system: PC-3
IGROV-1 = test system: IGROV-1
BT-549 = test system: BT-549
M14 = test system: M14
HOP-62 = test system: HOP-62
COLO 205 = test system: COLO 205
MDA-MB-435 = test system: MDA-MB-435
KM12 = test system: KM12
HL-60 = test system: HL-60
RXF 393 = test system: RXF 393
HCC 2998 = test system: HCC 2998
SN12C = test system: SN12C
NCI/ADR-RES = test system: NCI/ADR-RES
U-251 = test system: U-251
OVCAR-5 = test system: OVCAR-5
HOP-92 = test system: HOP-92
786-0 = test system: 786-0
SF-295 = test system: SF-295
ACHN = test system: ACHN
OVCAR-8 = test system: OVCAR-8
NCI-H23 = test system: NCI-H23
MDA-MB-231 = test system: MDA-MB-231
HT-29 = test system: HT-29
SW-620 = test system: SW-620
DU-145 = test system: DU-145
UACC-257 = test system: UACC-257
SK-MEL-28 = test system: SK-MEL-28
T47D = test system: T47D
SK-MEL-2 = test system: SK-MEL-2
EKVX = test system: EKVX
TK-10 = test system: TK-10
SF-268 = test system: SF-268
SF-539 = test system: SF-539
SR = test system: SR
SK-OV-3 = test system: SK-OV-3
CCRF-CEM = test system: CCRF-CEM
LOX IMVI = test system: LOX IMVI
SK-MEL-5 = test system: SK-MEL-5
UO-31 = test system: UO-31
OVCAR-4 = test system: OVCAR-4
NCI-H226 = test system: NCI-H226
NCI-H460 = test system: NCI-H460
OVCAR-3 = test system: OVCAR-3
Hs-578T = test system: Hs-578T
MOLT-4 = test system: MOLT-4
A549 = test system: A549
CAKI-1 = test system: CAKI-1
SNB-75 = test system: SNB-75
UACC-62 = test system: UACC-62
HCT-116 = test system: HCT-116
A498 = test system: A498

With `O=C1CC(NCCCNC2CC(=O)c3c(Br)sc(Br)c32)c2c(Br)sc(Br)c21` (centres undefined) the GI50 (SNB-19) was 2.45 µM (inactive), the GI50 (MCF7) was 0.369 µM (active) and the GI50 (Malme-3M) was 1.98 µM (inactive). For the same compound, the GI50 (RPMI-8226) was 0.118 µM (active), the GI50 (HCT-15) was 1.71 µM and the GI50 (K562) was 0.879 µM (active). For the same compound, the GI50 (MDA-N) was 1.79 µM (inactive), the GI50 (NCI-H522) was 1.25 µM (inactive) and the GI50 (PC-3) was 1.57 µM (inactive). For the same compound, the GI50 (IGROV-1) was 1.71 µM (inactive), the GI50 (BT-549) was 1.73 µM (inactive) and the GI50 (M14) was 2 µM (inactive). For the same compound, the GI50 (HOP-62) was 2.84 µM (inactive), the GI50 (COLO 205) was 2.22 µM (inactive) and the GI50 (MDA-MB-435) was 1.39 µM (inactive). The GI50 (KM12) was 1.49 µM (inactive), the GI50 (HL-60) was 1.38 µM (inactive) and the GI50 (RXF 393) was 1.69 µM (inactive). For the same compound, the GI50 (HCC 2998) was 1.99 µM (inactive), the GI50 (SN12C) was 1.99 µM (inactive) and the GI50 (NCI/ADR-RES) was 2.16 µM (inactive). For the same compound, the GI50 (U-251) was 1.82 µM (inactive), the GI50 (OVCAR-5) was 2.21 µM (inactive) and the GI50 (HOP-92) was 2.48 µM (inactive). For the same compound, the GI50 (786-0) was 0.675 µM (active), the GI50 (SF-295) was 3.78 µM (inactive) and the GI50 (ACHN) was 1.8 µM (inactive). For the same compound, the GI50 (OVCAR-8) was 1.66 µM (inactive), the GI50 (NCI-H23) was 1.83 µM (inactive) and the GI50 (MDA-MB-231) was 2.19 µM (inactive). The GI50 (HT-29) was 2.28 µM (inactive), the GI50 (SW-620) was 2.31 µM (inactive) and the GI50 (DU-145) was 1.66 µM (inactive). The GI50 (UACC-257) was 2.92 µM (inactive), the GI50 (SK-MEL-28) was 3.15 µM (inactive) and the GI50 (T47D) was 2.11 µM (inactive). The GI50 (SK-MEL-2) was 1.87 µM (inactive), the GI50 (EKVX) was 2.22 µM (inactive) and the GI50 (TK-10) was 2.06 µM (inactive). The GI50 (SF-268) was 2.54 µM (inactive), the GI50 (SF-539) was 2.47 µM (inactive) and the GI50 (SR) was 0.798 µM (active). The GI50 (SK-OV-3) was 4.1 µM (inactive), the GI50 (CCRF-CEM) was 0.238 µM (active) and the GI50 (LOX IMVI) was 1.4 µM (inactive). For the same compound, the GI50 (SK-MEL-5) was 2.04 µM (inactive), the GI50 (UO-31) was 1.42 µM (inactive) and the GI50 (OVCAR-4) was 2.93 µM (inactive). For the same compound, the GI50 (NCI-H226) was 3.78 µM (inactive), the GI50 (NCI-H460) was 3.62 µM (inactive) and the GI50 (OVCAR-3) was 1.82 µM (inactive). The GI50 (Hs-578T) was 4.58 µM (inactive), the GI50 (MOLT-4) was 0.42 µM (active) and the GI50 (A549) was 2.69 µM (inactive). For the same compound, the GI50 (CAKI-1) was 2.03 µM (inactive), the GI50 (SNB-75) was 2.48 µM (inactive) and the GI50 (UACC-62) was 1.62 µM (inactive). The GI50 (HCT-116) was 1.36 µM (inactive).
With `CCOP(=O)(OCC)C(F)(F)Cc1cnc(C)c2c1COC(C)(C)O2` the GI50 (SNB-19) was > 10 µM (inactive), the GI50 (MCF7) was > 10 µM (inactive) and the GI50 (Malme-3M) was > 10 µM (inactive). For the same compound, the GI50 (RPMI-8226) was > 10 µM (inactive), the GI50 (HCT-15) was over 10 µM and the GI50 (K562) was > 10 µM (inactive). For the same compound, the GI50 (MDA-N) was > 10 µM (inactive), the GI50 (PC-3) was > 10 µM (inactive) and the GI50 (IGROV-1) was > 10 µM (inactive). The GI50 (BT-549) was > 10 µM (inactive), the GI50 (M14) was > 10 µM (inactive) and the GI50 (HOP-62) was > 10 µM (inactive). For the same compound, the GI50 (COLO 205) was > 10 µM (inactive), the GI50 (MDA-MB-435) was > 10 µM (inactive) and the GI50 (KM12) was > 10 µM (inactive). For the same compound, the GI50 (HL-60) was > 10 µM (inactive), the GI50 (RXF 393) was > 10 µM (inactive) and the GI50 (HCC 2998) was > 10 µM (inactive). For the same compound, the GI50 (SN12C) was > 10 µM (inactive), the GI50 (NCI/ADR-RES) was > 10 µM (inactive) and the GI50 (U-251) was > 10 µM (inactive). The GI50 (OVCAR-5) was > 10 µM (inactive), the GI50 (HOP-92) was > 10 µM (inactive) and the GI50 (786-0) was > 10 µM (inactive). For the same compound, the GI50 (SF-295) was > 10 µM (inactive), the GI50 (ACHN) was > 10 µM (inactive) and the GI50 (OVCAR-8) was > 10 µM (inactive). The GI50 (NCI-H23) was > 10 µM (inactive), the GI50 (MDA-MB-231) was > 10 µM (inactive) and the GI50 (HT-29) was > 10 µM (inactive). The GI50 (A498) was > 10 µM (inactive), the GI50 (SW-620) was > 10 µM (inactive) and the GI50 (DU-145) was > 10 µM (inactive). For the same compound, the GI50 (UACC-257) was > 10 µM (inactive), the GI50 (SK-MEL-28) was > 10 µM (inactive) and the GI50 (T47D) was > 10 µM (inactive). For the same compound, the GI50 (SK-MEL-2) was > 10 µM (inactive), the GI50 (EKVX) was > 10 µM (inactive) and the GI50 (TK-10) was > 10 µM (inactive). The GI50 (SF-268) was > 10 µM (inactive), the GI50 (SF-539) was > 10 µM (inactive) and the GI50 (SR) was > 10 µM (inactive). For the same compound, the GI50 (SK-OV-3) was > 10 µM (inactive), the GI50 (CCRF-CEM) was > 10 µM (inactive) and the GI50 (SK-MEL-5) was > 10 µM (inactive). The GI50 (UO-31) was > 10 µM (inactive), the GI50 (OVCAR-4) was > 10 µM (inactive) and the GI50 (NCI-H226) was > 10 µM (inactive). The GI50 (NCI-H460) was > 10 µM (inactive), the GI50 (OVCAR-3) was > 10 µM (inactive) and the GI50 (Hs-578T) was > 10 µM (inactive). For the same compound, the GI50 (MOLT-4) was > 10 µM (inactive), the GI50 (A549) was > 10 µM (inactive) and the GI50 (CAKI-1) was > 10 µM (inactive). The GI50 (SNB-75) was > 10 µM (inactive), the GI50 (UACC-62) was > 10 µM (inactive) and the GI50 (HCT-116) was > 10 µM (inactive).
For `CC1CCc2sc3nc4n(c(=O)c3c2C1)CC(C)S4` (centres undefined), the GI50 (SNB-19) was 27.7 µM (inactive), the GI50 (MCF7) was 24 µM (inactive) and the GI50 (Malme-3M) was 25.7 µM (inactive). For the same compound, the GI50 (RPMI-8226) was 30.8 µM (inactive), the GI50 (HCT-15) was 25.6 µM and the GI50 (K562) was 24.7 µM (inactive). The GI50 (MDA-N) was 28.4 µM (inactive), the GI50 (NCI-H522) was 30.9 µM (inactive) and the GI50 (PC-3) was 22.5 µM (inactive). For the same compound, the GI50 (IGROV-1) was 34.2 µM (inactive), the GI50 (BT-549) was 27.5 µM (inactive) and the GI50 (M14) was 25.4 µM (inactive). For the same compound, the GI50 (HOP-62) was 32.7 µM (inactive), the GI50 (COLO 205) was 18 µM (inactive) and the GI50 (MDA-MB-435) was 34.4 µM (inactive). For the same compound, the GI50 (KM12) was 28.3 µM (inactive), the GI50 (RXF 393) was 15.4 µM (inactive) and the GI50 (HCC 2998) was 19.7 µM (inactive). The GI50 (SN12C) was 21.5 µM (inactive), the GI50 (NCI/ADR-RES) was 30.8 µM (inactive) and the GI50 (U-251) was 25.6 µM (inactive). The GI50 (OVCAR-5) was 27 µM (inactive), the GI50 (HOP-92) was 26.1 µM (inactive) and the GI50 (786-0) was 23.1 µM (inactive). The GI50 (SF-295) was 14.3 µM (inactive), the GI50 (ACHN) was 24.9 µM (inactive) and the GI50 (OVCAR-8) was 32.2 µM (inactive). The GI50 (NCI-H23) was 25.3 µM (inactive), the GI50 (MDA-MB-231) was 20.4 µM (inactive) and the GI50 (HT-29) was 15.8 µM (inactive). For the same compound, the GI50 (SW-620) was 43.9 µM (inactive), the GI50 (DU-145) was 28.3 µM (inactive) and the GI50 (UACC-257) was 20.2 µM (inactive). For the same compound, the GI50 (SK-MEL-28) was 25.9 µM (inactive), the GI50 (T47D) was 22.4 µM (inactive) and the GI50 (SK-MEL-2) was 19.5 µM (inactive). The GI50 (EKVX) was 15.1 µM (inactive), the GI50 (TK-10) was 25.1 µM (inactive) and the GI50 (SF-268) was 33.6 µM (inactive). For the same compound, the GI50 (SR) was 26.2 µM (inactive), the GI50 (SK-OV-3) was 29.7 µM (inactive) and the GI50 (LOX IMVI) was 20.9 µM (inactive). For the same compound, the GI50 (SK-MEL-5) was 18.9 µM (inactive), the GI50 (UO-31) was 2.77 µM (inactive) and the GI50 (OVCAR-4) was 25.5 µM (inactive). For the same compound, the GI50 (NCI-H226) was 21.8 µM (inactive), the GI50 (NCI-H460) was 22.5 µM (inactive) and the GI50 (OVCAR-3) was 7.6 µM (inactive). For the same compound, the GI50 (Hs-578T) was 39.9 µM (inactive), the GI50 (A549) was 21 µM (inactive) and the GI50 (CAKI-1) was 36.9 µM (inactive). For the same compound, the GI50 (SNB-75) was 21.5 µM (inactive), the GI50 (UACC-62) was 16.2 µM (inactive) and the GI50 (HCT-116) was 23.3 µM (inactive).
